Each structure is given as a SMILES string. Active and inactive are the calls of the source. No cut-off for these calls is given here.

In one data set the test system is THP-1. Put plainly: Cytotoxicity against human THP1 cells harboring NFkB-Luc assessed as LDH release at 10'11 M after 24 hrs by spectrophotometric method relative to control. Type of data set: cell-based. Particulars: thp-1, 24 h.
Data set [1] relates to Mus musculus. Put plainly: Anti-inflammatory activity in zymosan-induced C57BL/6J mouse peritonitis model assessed as reduction in total cell count in peritoneal cavity at 43 ng, ip pretreated for 30 mins followed by zymosan treatment and redosing of test compound at 1 hr post zymosan addition and measured at 24 hrs post zymosan addition by flow cytometry relative to basal level (reference value: 14). It is filed as functional. (In flow cytometry, cells or beads pass a laser one at a time.)

In data set [2] the test system is J774.1. In words: Anti-inflammatory activity in mouse J774.1 cells assessed as reduction in LPS-stimulated TNFalpha level at 10 nM preincubated for 1 hr followed by LPS stimulation for 24 hrs by ELISA relative to control. It is filed as functional. The arrangement: scale not given: the % may be the effect or the level left.
Data set [3] addresses T1, N-formyl peptide receptor 2 (Homo sapiens) (UniProt P25090).
T1 sequence (whole entry): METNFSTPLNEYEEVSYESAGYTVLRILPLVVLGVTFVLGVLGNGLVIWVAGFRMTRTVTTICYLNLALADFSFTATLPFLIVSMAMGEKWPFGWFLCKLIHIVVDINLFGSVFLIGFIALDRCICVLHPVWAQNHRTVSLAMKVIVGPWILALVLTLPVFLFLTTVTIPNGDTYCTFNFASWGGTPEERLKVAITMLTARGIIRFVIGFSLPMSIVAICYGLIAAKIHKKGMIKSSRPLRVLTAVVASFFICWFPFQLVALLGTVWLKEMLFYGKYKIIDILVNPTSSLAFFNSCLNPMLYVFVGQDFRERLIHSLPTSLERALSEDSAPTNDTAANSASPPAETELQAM
Put plainly: Agonist activity at ALX/FPR2 (unknown origin) expressed in HEK293 cells co-expressing Galphaq assessed as induction of intracellular calcium accumulation at 0.01 nM to 100 nM by Fluo-4 dye based fluorescence spectrophotometric assay. It is filed as functional, cell-based.

The test system of data set [4] is J774.1. Put plainly: Anti-inflammatory activity in mouse J774.1 cells assessed as reduction in LPS-stimulated TNFalpha level at 100 nM preincubated for 1 hr followed by LPS stimulation for 24 hrs by ELISA relative to control. Type of data set: functional. The arrangement: scale not given: the % may be the effect or the level left. Background: In an ELISA, binding on a coated surface is turned into a signal by an enzyme label.

Data set [5] has as its system Mus musculus. In words: Anti-inflammatory activity in zymosan-induced C57BL/6J mouse peritonitis model assessed as reduction in total cell count in peritoneal cavity at 125 ng, ip pretreated for 30 mins followed by zymosan treatment and redosing of test compound at 1 hr post zymosan addition and measured at 24 hrs post zymosan addition by flow cytometry relative to basal level (reference value: 14). It is filed as functional.

In data set [6] the test system is Mus musculus. In words: Anti-inflammatory activity in zymosan-induced C57BL/6J mouse peritonitis model assessed as PMN leukocytes level in peritoneal cavity at 125 ng, ip pretreated for 30 mins followed by zymosan treatment and redosing of test compound at 1 hr post zymosan addition and measured at 24 hrs post zymosan addition by flow cytometry (reference value: 100%). Type of data set: functional.

In data set [7] the test system is Mus musculus. Put plainly: Anti-inflammatory activity in zymosan-induced C57BL/6J mouse peritonitis model assessed as total cell count in peritoneal cavity at 125 ng, ip pretreated for 30 mins followed by zymosan treatment and redosing of test compound at 1 hr post zymosan addition and measured at 24 hrs post zymosan addition by flow cytometry (reference value: 100%). It is filed as functional.

Regarding `CCCCC[C@@H](O)c1nc(-c2ccccc2)n(-c2ccccc2)c1/C=C/[C@@H](O)[C@@H](O)CCCC(=O)OC`, the “fold change (FC)” value is recorded as 0.5 in the data set on THP-1 and 6 in the data set on Mus musculus [1]. Moreover, in the data set on J774.1 [2], the Activity came to 30%.

As for `CCCCC[C@H](O)c1nc(-c2ccccc2)n(-c2ccccc2)c1/C=C/[C@@H](O)[C@@H](O)CCCC(=O)OC`, in data set [3], the outcome was Active. Further, the “fold change (FC)” value with THP-1 amounted to 0.6; with Mus musculus [1], 3. In addition, the Activity with J774.1 [4] was 41%.

For orientation: Emax means the size of the effect at its maximum, as opposed to the concentration needed. As for `CCCCC[C@H](O)/C=C/C=C\C=C\C=C\[C@@H](O)[C@@H](O)CCCC(=O)O` [LIPOXIN A4], the result in data set [3] was Active. In addition, in the data set with Mus musculus [5], the “fold change (FC)” value amounted to 5. Moreover, the figures for the maximum response (Emax) in the data set on Mus musculus [6] and with Mus musculus [7] were 35.9% and 35.3%, respectively.
